Tests used:
arthritic femur heads = experiment: Organ culture of arthritic femur heads with monocyte-derived macrophages, Safranin-O staining; assay type: cell-based, mouse; details: monocytes incubated with 10 μM RG108 for 45 min before 1 nM MCTR3
Method: FIG. 6: Arg-1 mediates the anti-inflammatory and cartilage protective activities of MCTR3-trained monocytes. (A,B) Femur heads and bone marrow-derived monocytes were collected 5 days following the induction of arthritis in C57BL/6 mice. Femur heads were incubated in serum free DMEM high glucose containing 1% insulin-transferrin-selenium for 48 hours and then in DMEM containing 10% FBS and 10 ng/ml IL-1B for 4 days. Monocytes were incubated with vehicle (PBS+0.1% EtOH) or 1 nM MCTR3 for 24 hours, then differentiated to monocyte-derived macrophages. Two days after the initiation of differentiation, cells were transfected with control siRNA or siRNA against Arg-1. […] Tissues were then collected and glycosaminoglycan content was evaluated using Safranin-O staining. (A) Representative images and (B) quantitation of Safranin-O staining. […] Statistical differences were evaluated using Wilcoxon signed rank test when assessing for differences vs Vehicle group and using one-way ANOVA and Kruskal Wallis post hoc test when evaluating differences vs MCTR3 treated group.
FIG. 12: DNMT enzyme inhibition reverses the ability of MCTR3 to upregulate Arg-1 in MDM and the cartilage protective activities of MCTR3-trained monocytes. […] The proteoglycan concentrations in the femur heads were assessed using Safranin O staining. […] Statistical differences were evaluated using one-sample Wilcoxon signed rank test. […]

[1] = tested on: G6PI peptide induced arthritis in DBA/1 mice; experiment: G6PI peptide induced arthritis, transfer of monocytes from naive mice pre-incubated with MCTR3; assay type: in vivo, mouse; details: monocytes incubated with 10 μM RG108 for 15 min before 1 nM MCTR3
Method: FIG. 3: MCTR3 reprograms monocyte responses to reduce inflammation and repair inflamed joints. (A-B) Antigen induced arthritis was initiated by administering G6PI peptide (10 μg/mouse) in CFA via intradermal injection to DBA/1 mice. After 25 days mice were treated with 0.5×10^6 monocytes from naive mice that had been pre-incubated with vehicle (PBS+0.1% EtOH) or 1 nM MCTR3 for 90 min at 37° C. via i.v. injection. Disease course was monitored daily by assessing A) clinical scores and B) oedema. Results are mean±SEM and expressed as percent change from day of treatment n=5 per group from two separate experiments. Results are mean±SEM. Statistical differences were calculated using a Two-way ANOVA.
FIG. 11: DNA methyltransferase inhibition prevents MCTR3 reprogramming of protective monocyte responses. […] Disease course was assessed by evaluating A) clinical scores and B) oedema relative to the day of treatment. Results are mean±SEM and expressed as percentage change from day of treatment. n=5 per group and statistics were calculated using a Two-way ANOVA. […]

## O=C(O)C(Cc1c[nH]c2ccccc12)N1C(=O)c2ccccc2C1=O (centres unmarked) [RG108]
Arthritic femur heads
  cartilage protective activities of MCTR3-trained monocytes: reverses
[1]
  protective actions of MCTR3 (ability of reprogrammed monocytes to regulate joint inflammation): abolished

From patent publication US20240269170A1, “Treatment of Inflammatory Conditions or Diseases” (Queen Mary University of London, priority 2021, published 2024)
